The results in this text go back to ChEMBL document CHEMBL1152158, “Trifluoromethylpyrimidine-based inhibitors of proline-rich tyrosine kinase 2 (PYK2): structure-activity relationships and strategies for the elimination of reactive metabolite formation” (Bioorg Med Chem Lett, 2008).

The structures appear in SMILES notation.

Data set [1] addresses Protein-tyrosine kinase 2-beta (Homo sapiens, UniProt Q14289).
Description: Inhibition of GST-tagged pyk2 assessed as inhibition of poly-Glu-Tyr phosphorylation
Data set [2] addresses T1, Focal adhesion kinase 1 (Homo sapiens, UniProt Q05397).
The next data set in a line: in vitro. Conditions: human, liver microsomes. A general note: Liver microsomes are vesicles of endoplasmic reticulum, rich in cytochrome P450 enzymes.
The nature of data set [3]: Oral bioavailability in rat. Conditions: in vivo. It is filed as ADME, organism-based.
For data set [4], the target named is T1, Focal adhesion kinase 1. The data set can be described thus: Inhibition of GST-tagged FAK assessed as inhibition of poly-Glu-Tyr phosphorylation by fluorescence polarization assay.

Sequence of Protein-tyrosine kinase 2-beta (Q14289 whole entry): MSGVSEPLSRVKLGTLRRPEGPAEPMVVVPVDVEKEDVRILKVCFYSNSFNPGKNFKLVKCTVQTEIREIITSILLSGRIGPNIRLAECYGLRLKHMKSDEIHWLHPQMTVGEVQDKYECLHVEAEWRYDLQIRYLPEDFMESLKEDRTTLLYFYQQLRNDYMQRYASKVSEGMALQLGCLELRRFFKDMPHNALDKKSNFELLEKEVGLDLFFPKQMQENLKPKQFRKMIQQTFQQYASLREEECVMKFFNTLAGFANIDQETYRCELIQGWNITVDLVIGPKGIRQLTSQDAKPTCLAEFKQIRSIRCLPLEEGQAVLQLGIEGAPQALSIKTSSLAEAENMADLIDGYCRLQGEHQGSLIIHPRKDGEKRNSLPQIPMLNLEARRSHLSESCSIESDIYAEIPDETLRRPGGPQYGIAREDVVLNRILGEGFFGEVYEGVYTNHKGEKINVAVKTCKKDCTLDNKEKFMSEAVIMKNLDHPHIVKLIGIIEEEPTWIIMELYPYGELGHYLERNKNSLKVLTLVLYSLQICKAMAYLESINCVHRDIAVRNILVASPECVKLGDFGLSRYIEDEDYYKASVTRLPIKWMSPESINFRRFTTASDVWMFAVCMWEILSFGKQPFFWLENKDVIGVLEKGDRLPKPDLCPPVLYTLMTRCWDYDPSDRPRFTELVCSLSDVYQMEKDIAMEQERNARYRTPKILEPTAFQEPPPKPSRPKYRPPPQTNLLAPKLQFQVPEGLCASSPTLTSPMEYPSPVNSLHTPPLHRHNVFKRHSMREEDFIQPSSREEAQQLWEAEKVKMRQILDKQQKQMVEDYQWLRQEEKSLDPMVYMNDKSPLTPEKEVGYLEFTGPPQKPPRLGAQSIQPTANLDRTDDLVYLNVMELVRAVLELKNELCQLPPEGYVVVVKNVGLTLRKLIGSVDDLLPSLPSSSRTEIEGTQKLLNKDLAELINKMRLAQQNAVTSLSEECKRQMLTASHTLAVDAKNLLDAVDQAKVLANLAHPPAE
T1 sequence (Q05397 whole entry): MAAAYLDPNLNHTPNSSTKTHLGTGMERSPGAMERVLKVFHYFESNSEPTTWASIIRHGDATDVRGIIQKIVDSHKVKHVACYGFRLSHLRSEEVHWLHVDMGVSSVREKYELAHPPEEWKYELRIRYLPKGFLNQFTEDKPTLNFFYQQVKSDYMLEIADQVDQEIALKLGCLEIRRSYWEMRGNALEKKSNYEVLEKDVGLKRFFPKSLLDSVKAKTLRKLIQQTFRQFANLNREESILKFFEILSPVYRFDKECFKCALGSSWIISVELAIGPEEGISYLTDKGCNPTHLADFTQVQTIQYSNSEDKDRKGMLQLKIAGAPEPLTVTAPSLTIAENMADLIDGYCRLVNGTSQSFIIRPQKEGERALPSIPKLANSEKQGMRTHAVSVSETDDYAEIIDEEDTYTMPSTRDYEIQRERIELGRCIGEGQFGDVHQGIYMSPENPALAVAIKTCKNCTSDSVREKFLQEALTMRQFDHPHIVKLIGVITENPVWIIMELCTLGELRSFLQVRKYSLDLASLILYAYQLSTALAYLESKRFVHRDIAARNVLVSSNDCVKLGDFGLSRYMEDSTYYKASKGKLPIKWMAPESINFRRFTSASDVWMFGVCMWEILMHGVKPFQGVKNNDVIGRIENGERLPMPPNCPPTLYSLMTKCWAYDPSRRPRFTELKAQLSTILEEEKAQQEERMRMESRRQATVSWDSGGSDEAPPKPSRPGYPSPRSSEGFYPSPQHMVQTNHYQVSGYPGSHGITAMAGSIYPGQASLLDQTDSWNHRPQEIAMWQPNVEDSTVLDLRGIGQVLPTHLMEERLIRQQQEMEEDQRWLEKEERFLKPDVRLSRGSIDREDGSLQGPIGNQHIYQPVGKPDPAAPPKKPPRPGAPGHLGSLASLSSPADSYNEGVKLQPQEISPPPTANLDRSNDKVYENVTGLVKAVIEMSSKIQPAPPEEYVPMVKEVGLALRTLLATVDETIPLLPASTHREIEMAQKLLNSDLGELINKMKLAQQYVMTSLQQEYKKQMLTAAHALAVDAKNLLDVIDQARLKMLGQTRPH
Description for in vitro: Metabolic stability in human liver microsomes assessed as hepatic extraction ratio

Regarding `O=C1Cc2cc(Nc3ncc(C(F)(F)F)c(NCc4ccccc4)n3)ccc2N1`, the figures for the IC50 (in data set [1]; at Focal adhesion kinase 1 [2]) were 120 nM and 34 nM, respectively. For the same compound, the hepatic extraction ratio in the data set “in vitro” is under 0.26.

Turning to `CN(C)[C@@H]1CCC[C@H]1Nc1nc(Nc2ccn3ccnc3c2)ncc1C(F)(F)F`, the hepatic extraction ratio in the data set “in vitro” came out at 0.41.

Consider `Cc1cnc(Nc2ccc3c(c2)CC(=O)N3)nc1NCc1ccccn1`, for which the IC50 (as a rule, the midpoint of a concentration-inhibition curve) was over 3000 nM in data set [1] and 2200 nM on Focal adhesion kinase 1 [2]. In addition, in “in vitro”, the hepatic extraction ratio was under 0.3.

`CCN(CC)C(=O)c1ccc(Nc2ncc(C(F)(F)F)c(N[C@@H]3CCC[C@H]3N(C)C)n2)cc1` yielded an IC50 on Focal adhesion kinase 1 [2] of 3300 nM. Further, the hepatic extraction ratio in “in vitro” turned out to be 0.66.

`Cn1ccc2cc(Nc3ncc(C(F)(F)F)c(NCc4ccccn4)n3)ccc21`: the bioavailability (commonly the share of a dose that reaches the circulation, judged against a reference dose that is usually intravenous) in data set [3] was under 5%.

On to `CS(=O)(=O)c1ccccc1CNc1nc(Nc2ccc3c(c2)CC(=O)N3)ncc1C(F)(F)F`, for which the results for the IC50 (in data set [1]; at Focal adhesion kinase 1 [2]) were 15 nM and 59 nM, respectively. In “in vitro”, the hepatic extraction ratio is 0.55.

In data set [3], `FC(F)(F)c1cnc(Nc2ccc3[nH]ncc3c2)nc1NCc1ccccn1` yielded a bioavailability of under 5%.

Take `CN(C)[C@@H]1CCC[C@H]1Nc1nc(Nc2ccncc2)ncc1C(F)(F)F`: the IC50 on Focal adhesion kinase 1 [4] amounted to 6900 nM; against Focal adhesion kinase 1 [2], 4100 nM. The hepatic extraction ratio in the data set “in vitro” worked out at 0.48.

Consider `CN(C)C(=O)c1cccc(Nc2ncc(C(F)(F)F)c(N[C@@H]3CCC[C@H]3N(C)C)n2)c1`, for which the IC50 on Focal adhesion kinase 1 [4] stood at 4000 nM; against Focal adhesion kinase 1 [2], 3900 nM. In addition, the hepatic extraction ratio in “in vitro” was 0.66.

As for `CN(C)[C@@H]1CCC[C@H]1Nc1nc(Nc2ccc3c(c2)CS(=O)(=O)N3)ncc1C(F)(F)F`, the IC50 in data set [1] was 50 nM; on Focal adhesion kinase 1 [2], over 650 nM. Moreover, in “in vitro”, the hepatic extraction ratio is under 0.26.

As for `CS(=O)(=O)c1cccc(CNc2nc(Nc3ccc4c(c3)CC(=O)N4)ncc2C(F)(F)F)c1`, the IC50 is over 1100 nM in data set [1] and 9 nM at Focal adhesion kinase 1 [2]. Further, in “in vitro”, the hepatic extraction ratio stood at 0.35.

For the compound `O=C1CCCc2cc(Nc3ncc(C(F)(F)F)c(NC4CCC4)n3)ccc2N1`, half-maximal inhibition in data set [1] (IC50) was put at 33 nM.

`O=C1Cc2cc(Nc3ncc(Cl)c(NCc4ccccn4)n3)ccc2N1`: the values for the IC50 (in data set [1]; at Focal adhesion kinase 1 [2]) were over 1000 nM and 77 nM, respectively. Also, the hepatic extraction ratio in “in vitro” was under 0.28.

As to `CN(c1cccc(CNc2nc(Nc3ccc4c(c3)CC(=O)N4)ncc2C(F)(F)F)c1)S(C)(=O)=O`, the half-inhibitory concentration (IC50) in data set [1] is 190 nM; against Focal adhesion kinase 1 [2], 1.9 nM. Besides, the hepatic extraction ratio in “in vitro” was 0.59.

As to `CN(c1ccccc1CNc1nc(Nc2ccc(S(C)(=O)=O)cc2)ncc1C(F)(F)F)S(C)(=O)=O`, the half-inhibitory concentration (IC50) in data set [1] came to 35 nM; on Focal adhesion kinase 1 [2], 0.94 nM. The hepatic extraction ratio in the data set “in vitro” worked out at 0.93.

With `O=C1Cc2cc(Nc3nccc(NCc4ccccn4)n3)ccc2N1`, the IC50 (in data set [1]; against Focal adhesion kinase 1 [2]) was over 10000 nM each time. The hepatic extraction ratio in “in vitro” was under 0.26.
